Assay results published in article PMC6261997, “Synergistic enzymatic and bioorthogonal reactions for selective prodrug activation in living systems” (Nature Communications, 2018).

What was measured:
Saos-2 cells [1] = assay: MTT cell viability / cytotoxicity assay, Saos-2 cells; type: cell-based; details: MTT assay and clonogenic assay
Procedure: Cells were plated in flat-bottom 96-well plates at a density of 3 × 10^3 cells per well. After 12 h of cell attachment, the cell culture medium was replaced with 100 μL of pre-warmed media containing the compounds at different concentrations. After 24–72 h of incubation, cell proliferation was assessed by the MTT assay. A fresh mixture of 10 μL of thiazolyl blue tetrazolium bromide (MTT) and 90 μL of medium were freshly added to each well. After incubation for 4 h, the medium was gently removed. The formazan crystals that formed were dissolved in 110 μL of DMSO, and the absorbance was subsequently measured with a plate reader (Perkin Elmer) at 490 nm. EC50 values were calculated using Origin software. To measure the cytotoxicity of 2, HeLa cells, HUVECs, Saos-2 cells and CCC-HEH-2 cells were incubated with 100 μL of 1–500 μM 2 for 24 h, and then, cell viability was determined. To measure the cytotoxicity of TCO-Dox or Dox, HeLa cells, HUVECs, Saos-2 cells or CCC-HEH-2 cells were incubated with 200 μL of 0.001–10 μM TCO-Dox or Dox for 72 h, and the cell viability was determined. To determine the cytotoxicity of activated Dox, HeLa cells, HUVECs, Saos-2 cells or CCC-HEH-2 cells were pre-incubated with 100 μL of 500 μM 2 for 6 h, and then, 2 was removed and 200 μL of 0.0001–10 μM TCO-Dox was added for 72 h of incubation, and cell viability was determined. […]
Prodrug activation efficacy in cells: Cells were plated on flat bottom 96-well plates at a density of 3x10^3 cells per well. After 12 h attachment, cells were incubated with 100 µL 500 µM of 2 for 6 h before removing 2 and the addition of 200 µL 0.0001-10 µM of TCO-Dox. Cells were further incubated for 72 h before measuring the viability by the MTT […]
Clonogenic assay of cells in vitro: Clonogenic assay was performed according to the standard protocol.6 2×10^5 attached cells were treated with 500 µM of 2 for 6 h in culture dishes. Cells were then detached, re-suspended in cultural medium and counted accurately. The cell suspension was diluted into the desired seeding concentration and cells were seeded in 6-well plates at a density of 200 cells per well for CCC-HEH-2 and 400 cells per well for HeLa, Saos-2 and HUVECs. After incubation for 10 days, the cultural medium was removed and cells were rinsed carefully with PBS. 2 mL of a mixture of 6.0% (vol/vol) glutaraldehyde and 0.5% (wt/vol) crystal violet was added and kept for 30 min.
The glutaraldehyde crystal violet mixture was removed carefully. The colonies were rinsed with water and dried in normal air at room temperature. The number of the colonies was counted using a stereomicroscope.
When untreated cells are plated as a single-cell suspension at low densities, they will grow to colonies. The plating efficiency (PE) is the ratio of the number of colonies to the […]
(Supplementary Equation 1)
The number of colonies that arise after treatment of cells, expressed in terms of PE, is called the surviving fraction (SF): […]

HeLa tumours = assay: Tumour inhibition test, subcutaneous HeLa xenograft; type: in vivo, BALB/c nude mice
Procedure: All animal studies were performed in accordance with the Institutional Animal Use and Care Regulations approved by the National Institutes of Health Clinical Center/Animal Care and Use Committee (NIH CC/ACUC). Athymic female nude mice (5–6 weeks old) were purchased from Beijing Huafukang Bioscience Co., Ltd., and raised in a specific-pathogen-free barrier facility. Tumour-bearing mice were established by subcutaneously injecting a suspension of 10^6 HeLa cells per mouse into the front flank of each nude mouse.
After 14 days, the mice were sacrificed.

Saos-2 cells [2] = assay: Clonogenic assay, Saos-2 cells; type: cell-based; details: pre-treated with 500 μM 2 for 6 h
Procedure: Supplementary Figure 17. Clonogenic assay of different cell lines before and after treatment with 2. HeLa cells, HUVECs and Saos-2 cells were seeded at density of 400 cells per well, CCC-HEH-2 cells were seeded at density of 200 cells per well. Cells were incubated with 500 µM 2 for 6 h in the treatment groups. Cells were not treated with compound 2 in the control groups. Colonies were harvest approximately 10 days after seeding. Scale bar, 10 mm.
Supplementary Figure 18. Cytotoxicity of activated Dox against HeLa cells and HUVECs. HeLa cells or HUVECs at the density of 3x10^3 cells per well were incubated with 100 µL of pre-warmed medium containing compound 2 at 300 or 500 µM for 6 h. After washing with PBS, 100 µL of 0.0001-10 µM TCO-Dox was added. After 72 h, cell proliferation was assessed by the MTT assay (n= 6). Error bars indicate standard […]
Supplementary Figure 19. […] At each time point, the remaining 2, corresponding generated 3 and remaining TCO-Dox were determined by UPLC-MS/MS. […]
Clonogenic assay of cells in vitro: Clonogenic assay was performed according to the standard protocol.6 2×10^5 attached cells were treated with 500 µM of 2 for 6 h in culture dishes. Cells were then detached, re-suspended in cultural medium and counted accurately. […]
The glutaraldehyde crystal violet mixture was removed carefully. […] The number of the colonies was counted using a stereomicroscope. […]

Cc1nnc(-c2ccc(CC(=O)NCCCCC(NC(=O)Cc3ccc4ccccc4c3)C(=O)NC(Cc3ccc(OP(=O)(O)O)cc3)C(=O)NC(Cc3ccccc3)C(=O)O)cc2)nn1 (stereo not shown) [compound 2, NapK(Tz)YpF]
cytotoxicity of 2 against Saos-2 cells (Saos-2 cells [1]): toxic to Saos-2 cells to some extent | histological examination of dissected tumours (HE staining) (HeLa tumours; after treatment for 14 days): the HeLa cells remained normal | tumour growth (HeLa tumours; i.v., three courses (day 0, 3, 6), 50 mg kg^−1 2, 30 mg kg^−1 TCO-Dox, 5 mg kg^−1 Dox, or 50 mg kg^−1 2 then 30 mg kg^−1 TCO-Dox after 2 h): rapid growth similar to that observed in the saline control group | Surviving Fraction, Saos-2 (Saos-2 cells [2]): 0±0%
